Results published in PubChem BioAssay (NCI).
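Exposure lasted 48 hours, with cells grown in 96-well plates and compounds tested at five concentrations. Definition used: TGI = concentration required for complete inhibition of growth.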

Experiments:
Experiment in all cases: growth of human tumour cells (NCI), 48 h
ACHN renal = tested on: ACHN renal
COLO 205 colon = tested on: COLO 205 colon
HCT-15 colon = tested on: HCT-15 colon
HOP-62 NSCLC = tested on: HOP-62 NSCLC
MCF7 breast = tested on: MCF7 breast
MOLT-4 leukemia = tested on: MOLT-4 leukemia
NCI-H522 lung = tested on: NCI-H522 lung
NCI/ADR-RES ovarian = tested on: NCI/ADR-RES ovarian
SF-295 CNS = tested on: SF-295 CNS
SK-MEL-28 melanoma = tested on: SK-MEL-28 melanoma
SNB-19 CNS = tested on: SNB-19 CNS
SNB-75 CNS = tested on: SNB-75 CNS
SW-620 colon = tested on: SW-620 colon
UACC-257 melanoma = tested on: UACC-257 melanoma
UO-31 renal = tested on: UO-31 renal

Compound | TGI (ACHN renal) | TGI (COLO 205 colon) | TGI (HCT-15 colon) | TGI (HOP-62 NSCLC) | TGI (MCF7 breast) | TGI (MOLT-4 leukemia) | TGI (NCI-H522 lung) | TGI (NCI/ADR-RES ovarian) | TGI (SF-295 CNS) | TGI (SK-MEL-28 melanoma) | TGI (SNB-19 CNS) | TGI (SNB-75 CNS) | TGI (SW-620 colon) | TGI (UACC-257 melanoma) | TGI (UO-31 renal)
COC1OC(C(=O)O)C2OC(C)(C)OC12 (configuration not stated) | > 100 µM | > 100 µM | > 100 µM | > 100 µM | > 100 µM | > 100 µM | > 100 µM | > 100 µM | > 100 µM | > 100 µM | > 100 µM | > 100 µM | > 100 µM | > 100 µM | > 100 µM
CSc1nc(C)c2c(n1)N(c1ccc(Cl)cc1)CC2 | > 100 µM | > 100 µM | > 100 µM | > 100 µM | > 100 µM | > 100 µM | > 100 µM | > 100 µM | > 100 µM | > 100 µM | > 100 µM | 38.8 µM | > 100 µM | > 100 µM | –
NC(N)=NCCCC(NC(=O)c1c2ccccc2nc2ccccc12)C(=O)O (configuration not stated) | > 100 µM | > 100 µM | > 100 µM | > 100 µM | > 100 µM | > 100 µM | > 100 µM | > 100 µM | > 100 µM | > 100 µM | > 100 µM | > 100 µM | > 100 µM | > 100 µM | > 100 µM
COc1ccc(C23OCC(Cc4cc(OC)c(OC)cc42)C3CO)cc1OC (configuration not stated) | > 100 µM | > 100 µM | > 100 µM | > 100 µM | > 100 µM | > 100 µM | > 100 µM | > 100 µM | > 100 µM | > 100 µM | > 100 µM | > 100 µM | > 100 µM | – | > 100 µM
C=CCNC1=C2C[C@@H](C)C[C@@H](OC)[C@H](OC(=O)CCN(C)C)[C@H](C)/C=C(\C)[C@@H](OC(N)=O)[C@H](OC)/C=C\C=C(/C)C(=O)NC(=CC1=O)C2=O | 22.2 µM | 1.23 µM | 19.9 µM | 13.4 µM | 14.9 µM | > 40.6 µM | 17.3 µM | > 80.3 µM | 12.3 µM | 21.9 µM | 23.1 µM | 0.741 µM | > 51.3 µM | 16.7 µM | 27.1 µM
Cc1ccc(-n2cc(-c3ccc(Cl)cc3)c3c(=N)n(N)cnc32)cc1 | 29.7 µM | 20.7 µM | 28.9 µM | 27.4 µM | 23.2 µM | – | 28 µM | 26.8 µM | 28.8 µM | 26.7 µM | 24.4 µM | 25.9 µM | 25.1 µM | 21.5 µM | 24 µM
CC[C@@]12CCC(=S)N(CCSc3ccccc3)[C@@H]1c1c(n(S(=O)(=O)c3ccc(OC)cc3)c3ccccc13)CC2 | – | > 100 µM | > 100 µM | > 100 µM | > 100 µM | > 100 µM | > 100 µM | > 100 µM | > 100 µM | > 100 µM | > 100 µM | > 100 µM | > 100 µM | > 100 µM | > 100 µM
CCc1cc2c(c3c1CCCC3=O)CC1(C2)Cc2cc(CC)c3c(c2C1)C(=O)CCC3 | > 100 µM | > 100 µM | > 100 µM | > 100 µM | > 100 µM | > 100 µM | > 100 µM | > 100 µM | > 100 µM | > 100 µM | > 100 µM | > 100 µM | > 100 µM | > 100 µM | > 100 µM
Cc1cc(C)nc(NS(=O)(=O)c2ccc(Nc3c4ccccc4nc4ccc(C(=O)Nc5ccc(S(=O)(=O)N=C(N)N)cc5)cc34)cc2)n1 | > 100 µM | > 100 µM | > 100 µM | > 100 µM | 43.9 µM | > 100 µM | > 100 µM | > 100 µM | > 100 µM | > 100 µM | > 100 µM | > 100 µM | > 100 µM | > 100 µM | > 100 µM
C=CCN1C(=O)CC(=O)N(NC2=NNC3(C(=O)N2)c2ccccc2-c2ccccc23)C1=S | > 100 µM | 45 µM | > 100 µM | > 100 µM | > 100 µM | – | 96.3 µM | > 100 µM | > 100 µM | > 100 µM | > 100 µM | > 100 µM | > 100 µM | > 100 µM | > 100 µM
COC(=O)c1ccccc1C1CN=NC12Cc1c(C)ccc(C)c1C2=O (configuration not stated) | > 100 µM | > 100 µM | > 100 µM | > 100 µM | > 100 µM | > 100 µM | > 100 µM | > 100 µM | > 100 µM | > 100 µM | > 100 µM | > 100 µM | > 100 µM | > 100 µM | > 100 µM
O=C1c2ccccc2C(=O)c2sc(Nc3cc(Cl)ccc3Cl)nc21 | 19 µM | 34 µM | 9.48 µM | 28.9 µM | 3.7 µM | > 30.4 µM | 18.3 µM | 7.31 µM | 17.4 µM | 27.3 µM | 37.9 µM | 38.2 µM | > 22.2 µM | 7.76 µM | 19.4 µM
CCOC(=O)C1CCC(=O)N1C(=O)c1ccc(Cl)cc1 (configuration not stated) | > 100 µM | – | > 100 µM | > 100 µM | > 100 µM | > 100 µM | > 100 µM | > 100 µM | > 100 µM | > 100 µM | > 100 µM | > 100 µM | > 100 µM | > 100 µM | > 100 µM
S=c1[nH]nc(CCCCCCCCc2n[nH]c(=S)o2)o1 | > 100 µM | > 100 µM | > 100 µM | > 100 µM | > 100 µM | > 100 µM | – | > 100 µM | > 100 µM | > 100 µM | > 100 µM | > 100 µM | > 100 µM | > 100 µM | > 100 µM
O=C(NCc1ccccc1Cl)c1c(O)c2ccccc2[nH]c1=O | – | > 100 µM | > 100 µM | 41 µM | > 100 µM | > 100 µM | > 100 µM | 56.6 µM | > 100 µM | > 100 µM | > 100 µM | 52.2 µM | 64.3 µM | > 100 µM | 33.4 µM
